According to US11267800B2, “Cyclohexyl acid triazole azines as LPA antagonists” (BRISTOL-MYERS SQUIBB COMPANY, priority 2017, dated 2022):

target: T1, human LPA1 (Homo sapiens, UniProt Q92633); test: LPA1 functional antagonist assay (calcium flux); type: cell-based; conditions: CHO cells overexpressing human LPA1; inhibition of calcium flux induced by 10 nM LPA; read-out: hLPA1 IC50
T1 construct: expressed in transfected cells; host or cells: Chinese hamster ovary (CHO) cells
Experimental: The effectiveness of compounds of the present invention as LPA1 inhibitors can be determined in an LPA1 functional antagonist assay as follows:
Chinese hamster ovary cells overexpressing human LPA1 were plated overnight (15,000 cells/well) in poly-D-lysine coated 384-well microplates (Greiner bio-one, Cat #781946) in DMEM/F12 medium (Gibco, Cat #11039). Following overnight culture, cells were loaded with calcium indicator dye (AAT Bioquest Inc, Cat #34601) for 30 minutes at 37° C. The cells were then equilibrated to room temperature for 30 minutes before the assay. Test compounds solubilized in DMSO were transferred to 384 well non-binding surface plates (Corning, Cat #3575) using the Labcyte Echo acoustic dispense and diluted with assay buffer [1×HBSS with calcium/magnesium (Gibco Cat #14025-092), 20 mM HEPES (Gibco Cat #15630-080) and 0.1% fatty acid free BSA (Sigma Cat #A9205)] to a final concentration of 0.5% DMSO. Diluted compounds were added to the cells by FDSS6000 (Hamamatsu) at final concentrations ranging from 0.08 nM to 5 μM. and were then incubated for 20 min at room temperature at which time LPA (Avanti Polar Lipids Cat #857130C) was added at final concentrations of 10 nM to stimulate the cells. The compound IC50 value was defined as the concentration of test compound which inhibited 50% of the calcium flux induced by LPA alone. IC50 values were determined by fitting data to a 4-parameter logistic equation (GraphPad Prism, San Diego Calif.).

T1 sequence (Q92633 whole entry): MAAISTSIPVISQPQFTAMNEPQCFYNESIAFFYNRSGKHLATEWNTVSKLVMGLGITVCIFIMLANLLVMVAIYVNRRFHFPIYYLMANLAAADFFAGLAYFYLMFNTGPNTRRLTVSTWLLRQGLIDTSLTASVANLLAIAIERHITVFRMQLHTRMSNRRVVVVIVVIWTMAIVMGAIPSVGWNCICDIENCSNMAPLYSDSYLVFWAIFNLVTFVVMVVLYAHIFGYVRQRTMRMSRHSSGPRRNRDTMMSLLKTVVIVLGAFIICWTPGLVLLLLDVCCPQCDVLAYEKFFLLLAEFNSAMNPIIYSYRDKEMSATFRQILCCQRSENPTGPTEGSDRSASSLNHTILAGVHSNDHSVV

SMILES | IC50 [nM]
Cc1nc(-c2nnn(C)c2CNc2nccc(Oc3cccc(F)c3)n2)ccc1O[C@H]1CCC[C@H](C(=O)O)C1 [Example 109] | 17
Cc1nc(-c2nnn(C)c2CNc2nccc(Oc3ccc(F)cc3)n2)ccc1O[C@H]1CCC[C@H](C(=O)O)C1 [Example 110] | 22
Cc1nc(-c2nnn(C)c2CNc2nccc(-n3ccccc3=O)n2)ccc1O[C@H]1CCC[C@H](C(=O)O)C1 [Example 111] | 763
Cc1nc(-c2nnn(C)c2CNc2nccc(Oc3ccc(Cl)cc3)n2)ccc1O[C@H]1CCC[C@H](C(=O)O)C1 [Example 112] | 45
Cc1nc(-c2nnn(C)c2CNc2nccc(Oc3ccccn3)n2)ccc1O[C@H]1CCC[C@H](C(=O)O)C1 [Example 113] | 191
Cc1nc(-c2nnn(C)c2CNc2nccc(Oc3cc(F)cc(F)c3)n2)ccc1O[C@H]1CCC[C@H](C(=O)O)C1 [Example 114] | 17
Cc1nc(-c2nnn(C)c2CNc2nccc(Oc3ccccc3F)n2)ccc1O[C@H]1CCC[C@H](C(=O)O)C1 [Example 115] | 25
Cc1nc(-c2nnn(C)c2CNc2nccc(Oc3ccc(F)cc3F)n2)ccc1O[C@H]1CCC[C@H](C(=O)O)C1 [Example 116] | 14
Cc1nc(-c2nnn(C)c2CNc2nccc(OC3CC3)n2)ccc1O[C@H]1CCC[C@H](C(=O)O)C1 [Example 117] | 32
Cc1nc(-c2nnn(C)c2CNc2ncccc2OC(C)C)ccc1O[C@H]1CCC[C@H](C(=O)O)C1 [Example 118] | 448
Cc1nc(-c2nnn(C)c2CNc2ncccc2OC(F)(F)F)ccc1O[C@H]1CCC[C@H](C(=O)O)C1 [Example 119] | 793
Cc1nc(-c2nnn(C)c2CNc2ncc(F)c(-c3ccccc3F)n2)ccc1O[C@H]1CCC[C@H](C(=O)O)C1 [Example 123] | 79
Cc1nc(-c2nnn(C)c2CNc2nccc(CC(C)C)n2)ccc1O[C@H]1CCC[C@H](C(=O)O)C1 [Example 126] | 22
Cc1nc(-c2nnn(C)c2CNc2nccc(Oc3ccccc3)n2)cnc1O[C@H]1CCC[C@H](C(=O)O)C1 [Example 130] | 105
Cc1nc(-c2nnn(C)c2CNc2nccc(C(C)C)n2)cnc1O[C@H]1CCC[C@H](C(=O)O)C1 [Example 135] | 296
Cc1nc(-c2nnn(C)c2CNc2nccc(-c3ccccc3)n2)cnc1O[C@H]1CCC[C@H](C(=O)O)C1 [Example 137] | 56

SMILES | IC50 [nM]
Cc1nc(-c2nnn(C)c2CNc2nccc(-c3ccccc3F)n2)cnc1O[C@H]1CCC[C@H](C(=O)O)C1 [Example 138] | 33
Cn1nnc(-c2ccc(O[C@H]3CCC[C@H](C(=O)O)C3)cn2)c1CNc1nccc(OC2CC2)n1 [Example 139] | 42
Cn1nnc(-c2ccc(O[C@H]3CCC[C@H](C(=O)O)C3)cn2)c1CNc1ccnc(OC2CC2)n1 [Example 140] | 1370
CCOc1ccnc(NCc2c(-c3ccc(O[C@H]4CCC[C@H](C(=O)O)C4)cn3)nnn2C)n1 [Example 141] | 22
Cc1nc(-c2nnn(C)c2CNc2ncc(F)c(-c3ccccc3)n2)ccc1O[C@H]1CCC[C@H](C(=O)O)C1 [Example 143] | 26
Cc1cc(-c2ccccc2C#N)nc(NCc2c(-c3ccc(O[C@H]4CCC[C@H](C(=O)O)C4)c(C)n3)nnn2C)n1 [Example 145] | 58
Cc1nc(-c2nnn(C)c2CNc2ncc3c(n2)-c2ccccc2OC3)ccc1O[C@H]1CCC[C@H](C(=O)O)C1 [Example 147] | 278
CCC1(c2ccnc(NCc3c(-c4ccc(O[C@H]5CCC[C@H](C(=O)O)C5)c(C)n4)nnn3C)n2)CC1 [Example 148] | 70
Cc1nc(-c2nnn(C)c2CNc2nccc(C3(C)CC3)n2)ccc1O[C@H]1CCC[C@H](C(=O)O)C1 [Example 151] | 40
Cc1nc(-c2nnn(C)c2CNc2cc(Oc3ccccc3)ccn2)ccc1O[C@H]1CCC[C@H](C(=O)O)C1 [Example 152] | 67
Cc1nc(-c2nnn(C)c2CNc2nccc(C3CC3C)n2)ccc1O[C@H]1CCC[C@H](C(=O)O)C1 (stereo partly shown) [Example 154] | 43
Cc1nc(-c2nnn(C)c2CNc2nccc(C34CC(C3)C4)n2)ccc1O[C@H]1CCC[C@H](C(=O)O)C1 [Example 155] | 96
Cc1nc(-c2nnn(C)c2CNc2nccc(C3CC(F)C3)n2)ccc1O[C@H]1CCC[C@H](C(=O)O)C1 (stereo partly shown) [Example 156] | 32
Cc1nc(-c2nnn(C)c2CNc2nccc(C3CC(F)(F)C3)n2)ccc1O[C@H]1CCC[C@H](C(=O)O)C1 [Example 160] | 17
Cc1nc(-c2nnn(C)c2CNc2nccc(C3(C)CC(F)(F)C3)n2)ccc1O[C@H]1CCC[C@H](C(=O)O)C1 [Example 167] | 55
Cc1nc(-c2nnn(C)c2CNc2ncc(C#N)c(C3CCC3)n2)ccc1O[C@H]1CCC[C@H](C(=O)O)C1 [Example 168] | 129

The remaining lines, values ahead:

IC50 [nM] | SMILES
344 | COc1cnc(NCc2c(-c3ccc(O[C@H]4CCC[C@H](C(=O)O)C4)c(C)n3)nnn2C)nc1C(C)(C)C [Example 120]
106 | COc1cnc(NCc2c(-c3ccc(O[C@H]4CCC[C@H](C(=O)O)C4)c(C)n3)nnn2C)nc1C1CCC1 [Example 121]
1130 | COC(C)(C)c1ccnc(NCc2c(-c3ccc(O[C@H]4CCC[C@H](C(=O)O)C4)c(C)n3)nnn2C)n1 [Example 122]
385 | COCC(C)(C)c1ccnc(NCc2c(-c3ccc(O[C@H]4CCC[C@H](C(=O)O)C4)c(C)n3)nnn2C)n1 [Example 124]
167 | Cc1nc(-c2nnn(C)c2CNc2cc(C(F)(F)F)nc(Cl)n2)ccc1O[C@H]1CCC[C@H](C(=O)O)C1 [Example 125]
22 | Cc1nc(-c2nnn(C)c2CNc2nccc(C(C)(C)CF)n2)ccc1O[C@H]1CCC[C@H](C(=O)O)C1 [Example 127]
855 | Cc1nc(-c2nnn(C)c2CNc2nccc(C(C)(C)CO)n2)ccc1O[C@H]1CCC[C@H](C(=O)O)C1 [Example 128]
102 | CCc1cc(CC)nc(NCc2c(-c3ccc(O[C@H]4CCC[C@H](C(=O)O)C4)c(C)n3)nnn2C)n1 [Example 129]
53 | Cc1nc(-c2nnn(C)c2CNc2nccc(C(C)(C)F)n2)ccc1O[C@H]1CCC[C@H](C(=O)O)C1 [Example 132]
116 | Cc1nc(-c2nnn(C)c2CNc2nccc(C(C)(F)F)n2)ccc1O[C@H]1CCC[C@H](C(=O)O)C1 [Example 133]
28 | CCC(F)(F)c1ccnc(NCc2c(-c3ccc(O[C@H]4CCC[C@H](C(=O)O)C4)c(C)n3)nnn2C)n1 [Example 134]
86 | Cc1nc(-c2nnn(C)c2CNc2nccc(C(C)(C)C)n2)cnc1O[C@H]1CCC[C@H](C(=O)O)C1 [Example 136]
159 | COc1nc(NCc2c(-c3ccc(O[C@H]4CCC[C@H](C(=O)O)C4)c(C)n3)nnn2C)ncc1F [Example 142]
40 | Cc1nc(-c2nnn(C)c2CNc2ncc(F)c(C(C)(C)C)n2)ccc1O[C@H]1CCC[C@H](C(=O)O)C1 [Example 144]
34 | CCC(C)(C)c1ccnc(NCc2c(-c3ccc(O[C@H]4CCC[C@H](C(=O)O)C4)c(C)n3)nnn2C)n1 [Example 149]
84 | Cc1nc(-c2nnn(C)c2CNc2cc(C(C)(C)C)ccn2)ccc1O[C@H]1CCC[C@H](C(=O)O)C1 [Example 150]
704 | Cc1nc(-c2nnn(C)c2CNc2nccc(C(C)(C)O)n2)ccc1O[C@H]1CCC[C@H](C(=O)O)C1 [Example 153]
40 | Cc1nc(-c2nnn(C)c2CNc2ncc(F)c(C(C)C)n2)ccc1O[C@H]1CCC[C@H](C(=O)O)C1 [Example 157]
27 | Cc1nc(-c2nnn(C)c2CNc2ncc(Cl)c(C(C)C)n2)ccc1O[C@H]1CCC[C@H](C(=O)O)C1 [Example 158]
21 | CCC(C)c1ccnc(NCc2c(-c3ccc(O[C@H]4CCC[C@H](C(=O)O)C4)c(C)n3)nnn2C)n1 (stereo partly shown) [Example 159]
443 | COC(=O)c1cc(C(C)(C)C)nc(NCc2c(-c3ccc(O[C@H]4CCC[C@H](C(=O)O)C4)c(C)n3)nnn2C)n1 [Example 161]
2370 | Cc1nc(-c2nnn(C)c2CNc2nc(C(N)=O)cc(C(C)(C)C)n2)ccc1O[C@H]1CCC[C@H](C(=O)O)C1 [Example 162]
168 | COC(=O)c1cc(C2CCC2)nc(NCc2c(-c3ccc(O[C@H]4CCC[C@H](C(=O)O)C4)c(C)n3)nnn2C)n1 [Example 163]
42 | Cc1nc(-c2nnn(C)c2CNc2nc(C#N)cc(C3CCC3)n2)ccc1O[C@H]1CCC[C@H](C(=O)O)C1 [Example 164]
243 | Cc1nc(-c2nnn(C)c2CNc2nc(C(N)=O)cc(C3CCC3)n2)ccc1O[C@H]1CCC[C@H](C(=O)O)C1 [Example 165]
180 | Cc1nc(-c2nnn(C)c2CNc2nc(C#N)cc(C(C)(C)C)n2)ccc1O[C@H]1CCC[C@H](C(=O)O)C1 [Example 166]
86 | COc1cc(C(C)(C)C)nc(NCc2c(-c3ccc(O[C@H]4CCC[C@H](C(=O)O)C4)c(C)n3)nnn2C)n1 [Example 169]
16 | COc1cc(C2CCC2)nc(NCc2c(-c3ccc(O[C@H]4CCC[C@H](C(=O)O)C4)c(C)n3)nnn2C)n1 [Example 170]
177 | Cc1nc(-c2nnn(C)c2CNc2ncc(C#N)c(C(C)(C)C)n2)ccc1O[C@H]1CCC[C@H](C(=O)O)C1 [Example 171]
